According to patent US6376692B1, “Zirconium alkoxytris (β-Diketonate), process for manufacturing the same, and liquid composition for formation of PZT film” (Kabushikikaisha Kojundokagaku Kenkyusho, priority 1999, dated 2002):
Where two headings read alike, the source gives them in different places.

Conditions: room temperature

SMILES | amount dissolved in 1 liter of the solvent (Butyl Acetate) | amount dissolved in 1 liter of the solvent (Hexane) | amount dissolved in 1 liter of the solvent (THF) | amount dissolved in 1 liter of the solvent (Toluene) | amount dissolved in 1 liter of the solvent (n-Butyl Ether)
CC(C)(C)C(=O)C=C([O-])C(C)(C)C.CC(C)(C)C(=O)C=C([O-])C(C)(C)C.CC(C)(C)C(=O)C=C([O-])C(C)(C)C.CC(C)[O-].[Zr+4] [Zr(OiPr)(dpm)3, zirconium isopropoxy tris(dipivaloylmethanate)] | 460 grams in 1 liter of the solven | 620 grams in 1 liter of the solven | 980 grams in 1 liter of the solven | 1100 grams in 1 liter of the solven | 430 grams in 1 liter of the solven
CC(C)(C)C(=O)C=C(O)C(C)(C)C.CC(C)(C)C(=O)C=C(O)C(C)(C)C.CC(C)(C)C(=O)C=C(O)C(C)(C)C.CC(C)(C)C(=O)C=C(O)C(C)(C)C.[Zr] [Zr(dpm)4] | 180 grams in 1 liter of the solven | 430 grams in 1 liter of the solven | 1020 grams in 1 liter of the solven | 290 grams in 1 liter of the solven | 240 grams in 1 liter of the solven
